Source: patent US8192962B2, “Processes for detecting toxic substances” (Daikin Industries, Ltd., priority 2001, dated 2012)

Test system: Genes belonging to other category
Experiment: DNA chip mRNA expression in yeast, genes belonging to other category (Table 9)
Type: cell-based, Saccharomyces cerevisiae S288C
In short: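 In this screen, yeast in logarithmic growth are challenged for two hours with a toxic substance at a non-lethal inhibitory concentration. Their mRNA, converted to Cy3- or Cy5-labeled cDNA, hybridizes at 65° C. to a chip spanning every yeast gene, and expression is expressed as a ratio to untreated cells.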

SMILES: CN(C)C(=S)SSC(=S)N(C)C [(10), Tetramethylthiuram disulfide]
- The level of expressed mRNA in the presence of chemical substance/The level of expressed mRNA in the absence of chemical substance (yeast gene YDR505C): 1.0
- The level of expressed mRNA in the presence of chemical substance/The level of expressed mRNA in the absence of chemical substance (yeast gene YDR510W): 2.5
- The level of expressed mRNA in the presence of chemical substance/The level of expressed mRNA in the absence of chemical substance (yeast gene YDR515W): 2.7
- The level of expressed mRNA in the presence of chemical substance/The level of expressed mRNA in the absence of chemical substance (yeast gene YEL012W): 4.2
- The level of expressed mRNA in the presence of chemical substance/The level of expressed mRNA in the absence of chemical substance (yeast gene YEL042W): 0.3
- The level of expressed mRNA in the presence of chemical substance/The level of expressed mRNA in the absence of chemical substance (yeast gene YEL066W): 2.4
- The level of expressed mRNA in the presence of chemical substance/The level of expressed mRNA in the absence of chemical substance (yeast gene YER009W): 1.0
- The level of expressed mRNA in the presence of chemical substance/The level of expressed mRNA in the absence of chemical substance (yeast gene YER012W): 2.7
- The level of expressed mRNA in the presence of chemical substance/The level of expressed mRNA in the absence of chemical substance (yeast gene YER039C): 0.8
- The level of expressed mRNA in the presence of chemical substance/The level of expressed mRNA in the absence of chemical substance (yeast gene YER076C): 1.2
- The level of expressed mRNA in the presence of chemical substance/The level of expressed mRNA in the absence of chemical substance (yeast gene YER107C): 0.5
- The level of expressed mRNA in the presence of chemical substance/The level of expressed mRNA in the absence of chemical substance (yeast gene YER130C): 1.3
- The level of expressed mRNA in the presence of chemical substance/The level of expressed mRNA in the absence of chemical substance (yeast gene YFL022C): 0.5
- The level of expressed mRNA in the presence of chemical substance/The level of expressed mRNA in the absence of chemical substance (yeast gene YFL028C): 1.8
- The level of expressed mRNA in the presence of chemical substance/The level of expressed mRNA in the absence of chemical substance (yeast gene YFL043C): 3.8
- The level of expressed mRNA in the presence of chemical substance/The level of expressed mRNA in the absence of chemical substance (yeast gene YFR004W): 2.6
- The level of expressed mRNA in the presence of chemical substance/The level of expressed mRNA in the absence of chemical substance (yeast gene YFR014C): 1.6
- The level of expressed mRNA in the presence of chemical substance/The level of expressed mRNA in the absence of chemical substance (yeast gene YFR050C): 2.1
- The level of expressed mRNA in the presence of chemical substance/The level of expressed mRNA in the absence of chemical substance (yeast gene YGL158W): 0.9
- The level of expressed mRNA in the presence of chemical substance/The level of expressed mRNA in the absence of chemical substance (yeast gene YGL180W): 3.7
- The level of expressed mRNA in the presence of chemical substance/The level of expressed mRNA in the absence of chemical substance (yeast gene YGL185C): 2.3
- The level of expressed mRNA in the presence of chemical substance/The level of expressed mRNA in the absence of chemical substance (yeast gene YGL229C): 1.7
- The level of expressed mRNA in the presence of chemical substance/The level of expressed mRNA in the absence of chemical substance (yeast gene YGR120C): 1.2
- The level of expressed mRNA in the presence of chemical substance/The level of expressed mRNA in the absence of chemical substance (yeast gene YGR136W): 2.2
- The level of expressed mRNA in the presence of chemical substance/The level of expressed mRNA in the absence of chemical substance (yeast gene YGR189C): 0.9
- The level of expressed mRNA in the presence of chemical substance/The level of expressed mRNA in the absence of chemical substance (yeast gene YGR213C): 6.9
- The level of expressed mRNA in the presence of chemical substance/The level of expressed mRNA in the absence of chemical substance (yeast gene YGR248W): 3.2
- The level of expressed mRNA in the presence of chemical substance/The level of expressed mRNA in the absence of chemical substance (yeast gene YGR257C): 1.9
- The level of expressed mRNA in the presence of chemical substance/The level of expressed mRNA in the absence of chemical substance (yeast gene YHR004C): 0.6
- The level of expressed mRNA in the presence of chemical substance/The level of expressed mRNA in the absence of chemical substance (yeast gene YHR071W): 7.2
- The level of expressed mRNA in the presence of chemical substance/The level of expressed mRNA in the absence of chemical substance (yeast gene YHR109W): 1.8
- The level of expressed mRNA in the presence of chemical substance/The level of expressed mRNA in the absence of chemical substance (yeast gene YHR136C): 2.0
- The level of expressed mRNA in the presence of chemical substance/The level of expressed mRNA in the absence of chemical substance (yeast gene YHR139C): 46.6
- The level of expressed mRNA in the presence of chemical substance/The level of expressed mRNA in the absence of chemical substance (yeast gene YHR142W): 0.9
- The level of expressed mRNA in the presence of chemical substance/The level of expressed mRNA in the absence of chemical substance (yeast gene YHR161C): 2.0
- The level of expressed mRNA in the presence of chemical substance/The level of expressed mRNA in the absence of chemical substance (yeast gene YIL034C): 1.3
- The level of expressed mRNA in the presence of chemical substance/The level of expressed mRNA in the absence of chemical substance (yeast gene YIL123W): 0.2
- The level of expressed mRNA in the presence of chemical substance/The level of expressed mRNA in the absence of chemical substance (yeast gene YIL140W): 0.6
- The level of expressed mRNA in the presence of chemical substance/The level of expressed mRNA in the absence of chemical substance (yeast gene YJL035C): 1.4
- The level of expressed mRNA in the presence of chemical substance/The level of expressed mRNA in the absence of chemical substance (yeast gene YJL059W): 1.6
- The level of expressed mRNA in the presence of chemical substance/The level of expressed mRNA in the absence of chemical substance (yeast gene YJL073W): 0.7
- The level of expressed mRNA in the presence of chemical substance/The level of expressed mRNA in the absence of chemical substance (yeast gene YJL089W): 3.9
- The level of expressed mRNA in the presence of chemical substance/The level of expressed mRNA in the absence of chemical substance (yeast gene YJL116C): 2.6
- The level of expressed mRNA in the presence of chemical substance/The level of expressed mRNA in the absence of chemical substance (yeast gene YJL141C): 1.3
- The level of expressed mRNA in the presence of chemical substance/The level of expressed mRNA in the absence of chemical substance (yeast gene YJR004C): 0.7
- The level of expressed mRNA in the presence of chemical substance/The level of expressed mRNA in the absence of chemical substance (yeast gene YJR049C): 1.4
